In patent US9346809B2 (LEO PHARMA A/S, priority 2009, dated 2016) one finds EC50 data, which are given here for nine compounds.

Assay type in all cases: biochemical
Assay [1] has as its target T1, JAK1 (aa 850-1154, catalytic domain, GST-tag) (Homo sapiens, UniProt P23458).
T1 construct: JAK1 (aa 850-1154) and TYK2 (aa 871-1187) are expressed with an N-terminally fused GST-tag; GST (N); purchased Carna Biosciences, Inc; host or cells: baculovirus expression system
Nature of the assay: JAK kinase assay (HTRF, phosphorylation of TK substrate-biotin), JAK1. To be noted: ATP at Km (7 μM), read-out: JAK1 kinase inhibitory activity (EC50 indicator). A digest of the protocol: (§1)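 HTRF KinEASE TK format; 1 μM biotinylated peptide, Km ATP: 7 μM (JAK1, 10 mM MgCl2, 50 nM SEB), 4 μM (JAK2), 2 μM (JAK3), 13 μM (TYK2, 50 nM SEB); 5 mM MgCl2 for the latter three. RT 20-30 min, 0.75% DMSO final. Overnight detection, EC50.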

The target of assay [2] is T2, JAK2 (catalytic domain, His-tag) (Homo sapiens, UniProt O60674).
T2 construct: All four purified enzymes contain only the catalytic domain; His (N); purchased Carna Biosciences, Inc; host or cells: baculovirus expression system
T2 sequence (O60674 849-1124 limits assumed): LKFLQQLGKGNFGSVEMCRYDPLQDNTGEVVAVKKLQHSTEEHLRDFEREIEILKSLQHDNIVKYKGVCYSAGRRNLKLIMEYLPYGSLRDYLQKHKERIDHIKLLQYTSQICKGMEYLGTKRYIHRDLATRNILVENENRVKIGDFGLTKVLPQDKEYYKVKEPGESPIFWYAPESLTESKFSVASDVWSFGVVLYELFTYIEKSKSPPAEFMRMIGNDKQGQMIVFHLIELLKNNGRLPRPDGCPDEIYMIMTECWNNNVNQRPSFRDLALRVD
Put plainly: JAK kinase assay (HTRF, phosphorylation of TK substrate-biotin), JAK2. To be noted: ATP at Km (4 μM), read-out: JAK2 kinase inhibitory activity (EC50 indicator). A digest of the protocol:
as §1

In assay [3] the target is T3, JAK3 (catalytic domain, His-tag) (Homo sapiens, UniProt P52333).
T3 construct: All four purified enzymes contain only the catalytic domain; His (N); purchased Carna Biosciences, Inc; host or cells: baculovirus expression system
T3 sequence (P52333 822-1111 limits assumed): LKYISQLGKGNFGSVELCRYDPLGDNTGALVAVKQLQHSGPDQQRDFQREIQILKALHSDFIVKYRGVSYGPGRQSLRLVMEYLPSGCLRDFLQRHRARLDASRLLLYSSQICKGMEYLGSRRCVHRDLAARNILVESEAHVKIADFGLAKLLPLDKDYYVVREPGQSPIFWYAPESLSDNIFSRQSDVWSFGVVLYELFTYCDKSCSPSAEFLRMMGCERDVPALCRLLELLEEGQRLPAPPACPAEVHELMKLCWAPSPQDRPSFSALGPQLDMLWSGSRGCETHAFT
Put plainly: JAK kinase assay (HTRF, phosphorylation of TK substrate-biotin), JAK3. Particulars: ATP at Km (2 μM), read-out: JAK3 kinase inhibitory activity (EC50 indicator). A digest of the protocol:
as §1

The target of assay [4] is T4, TYK2 (aa 871-1187, catalytic domain, GST-tag) (Homo sapiens, UniProt P29597).
T4 construct: JAK1 (aa 850-1154) and TYK2 (aa 871-1187) are expressed with an N-terminally fused GST-tag; GST (N); purchased Carna Biosciences, Inc; host or cells: baculovirus expression system
T4 sequence (P29597 871-1187): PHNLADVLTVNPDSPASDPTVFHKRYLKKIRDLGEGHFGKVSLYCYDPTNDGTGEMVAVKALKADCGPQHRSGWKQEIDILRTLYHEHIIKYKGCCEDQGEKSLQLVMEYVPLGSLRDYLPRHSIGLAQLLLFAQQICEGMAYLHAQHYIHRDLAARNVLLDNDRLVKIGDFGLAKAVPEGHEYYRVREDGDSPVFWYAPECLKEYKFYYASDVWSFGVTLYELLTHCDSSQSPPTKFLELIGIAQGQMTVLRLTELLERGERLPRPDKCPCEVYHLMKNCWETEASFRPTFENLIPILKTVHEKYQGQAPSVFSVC
Put plainly: JAK kinase assay (HTRF, phosphorylation of TK substrate-biotin), TYK2. Particulars: ATP at Km (13 μM), read-out: TYK2 kinase inhibitory activity (EC50 indicator). A digest of the protocol:
as §1

Read-outs that look alike come from different tables or passages of the source.

T1 sequence (P23458 850-1154): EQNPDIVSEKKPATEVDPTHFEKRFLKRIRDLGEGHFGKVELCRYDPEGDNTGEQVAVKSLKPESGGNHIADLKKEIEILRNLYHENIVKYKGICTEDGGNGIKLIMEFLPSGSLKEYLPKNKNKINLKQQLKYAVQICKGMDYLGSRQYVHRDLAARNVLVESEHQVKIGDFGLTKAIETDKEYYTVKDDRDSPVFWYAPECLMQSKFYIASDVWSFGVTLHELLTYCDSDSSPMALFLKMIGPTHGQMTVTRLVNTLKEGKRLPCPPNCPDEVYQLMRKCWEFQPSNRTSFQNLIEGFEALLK

For the compound `O=C(C1CCS(=O)(=O)CC1)N1CCN(c2ncnc3[nH]ccc23)CC12CC2` [Example 13, (1,1-Dioxo-hexahydro-1lambda*6*-thiopyran-4-yl)[7-(7H-pyrrolo[2,3-d]pyrimidin-4-yl)-4,7-diazaspiro[2.5]oct-4-yl]methanone], the EC50 in assay [1] is 100 to 500 nM; in assay [2] it was 100 to 500 nM; in assay [3] it was 100 to 500 nM; in assay [4], more than 500 nM.

For the compound `O=C(O)C1(C(=O)N2CCN(c3ncnc4[nH]ccc34)CC23CC3)CC1` [Example 85, 1-[7-(7H-Pyrrolo[2,3-d]pyrimidin-4-yl)-4,7-diaza-spiro[2.5]octane-4-carbonyl]-cyclopropanecarboxylic acid], the EC50 in assay [1] was more than 500 nM; in assay [2] it was 100 to 500 nM; in assay [3], more than 500 nM; in assay [4], more than 500 nM.

Regarding `O=C(c1ccccn1)N1[C@@H]2CC[C@@H]1CN(c1ncnc3[nH]ccc13)C2` [Example 241, Pyridin-2-yl-[3-(7H-pyrrolo[2,3-d]pyrimidin-4-yl)-3,8-diaza-bicyclo[3.2.1]oct-8-yl]-methanone], the EC50 in assay [1] (HTRF assay) was less than 100 nM; in assay [2] (HTRF assay), less than 100 nM; in assay [3] (HTRF assay) it was 100 to 500 nM; in assay [4] (HTRF assay) it was more than 500 nM.

For `N#Cc1ccc(C(=O)N2CCN(c3ncnc4[nH]ccc34)CC23CC3)cc1F` [Example 219, 2-Fluoro-4-[7-(7H-pyrrolo[2,3-d]pyrimidin-4-yl)-4,7-diaza-spiro[2.5]octane-4-carbonyl]-benzonitrile], the EC50 in assay [1] (HTRF assay) was less than 100 nM; in assay [2] (HTRF assay), less than 100 nM; in assay [3] (HTRF assay), 100 to 500 nM; in assay [4] (HTRF assay) it was 100 to 500 nM.

For `Cc1ccc2[nH]c(C(=O)N3CCN(c4ncnc5[nH]ccc45)CC34CC4)cc2c1` [Example 184, (5-Methyl-1H-indol-2-yl)-[7-(7H-pyrrolo[2,3-d]pyrimidin-4-yl)-4,7-diaza-spiro[2.5]oct-4-yl]-methanone], the EC50 in assay [1] is less than 100 nM; in assay [2], less than 100 nM; in assay [3], less than 100 nM; in assay [4], 100 to 500 nM.

For `N#CC1(C(=O)N2[C@@H]3CC[C@@H]2CN(c2ncnc4[nH]ccc24)C3)CCOCC1` [Example 248, 4-[3-(7H-Pyrrolo[2,3-d]pyrimidin-4-yl)-3,8-diaza-bicyclo[3.2.1]octane-8-carbonyl]-tetrahydro-pyran-4-carbonitrile], the 50% effective concentration (EC50) in assay [1] (HTRF assay) is 100 to 500 nM; in assay [2] (HTRF assay), less than 100 nM; in assay [3] (HTRF assay) it was 100 to 500 nM; in assay [4] (HTRF assay), more than 500 nM.

As to `CC(=O)Nc1ccc(C(=O)N2[C@@H]3CC[C@@H]2CN(c2ncnc4[nH]ccc24)C3)cc1` [Example 354, N-{4-[3-(7H-Pyrrolo[2,3-d]pyrimidin-4-yl)-3,8-diaza-bicyclo[3.2.1]octane-8-carbonyl]-phenyl}-acetamide], the half-maximal effective concentration (EC50) in assay [1] (HTRF assay) was less than 100 nM; in assay [2] (HTRF assay), less than 100 nM; in assay [3] (HTRF assay), 100 to 500 nM; in assay [4] (HTRF assay), more than 500 nM.

Regarding `NC(=O)c1ccc(C(=O)N2[C@@H]3CC[C@@H]2CN(c2ncnc4[nH]ccc24)C3)cc1` [Example 358, 4-[3-(7H-Pyrrolo[2,3-d]pyrimidin-4-yl)-3,8-diaza-bicyclo[3.2.1]octane-8-carbonyl]-benzamide], the concentration giving a half-maximal response (EC50) in assay [1] (HTRF assay) was less than 100 nM; in assay [2] (HTRF assay), less than 100 nM; in assay [3] (HTRF assay), 100 to 500 nM; in assay [4] (HTRF assay) it was 100 to 500 nM.

As for `NS(=O)(=O)c1ccc2[nH]c(C(=O)N3CCN(c4ncnc5[nH]ccc45)CC34CC4)cc2c1` [Example 186, 2-[7-(7H-Pyrrolo[2,3-d]pyrimidin-4-yl)-4,7-diaza-spiro[2.5]octane-4-carbonyl]-1H-indole-5-sulfonic acid amide], the EC50 in assay [1], in assay [2], in assay [3] and in assay [4] was less than 100 nM throughout.
